pKi: −log10 of the molar value. ≈ marks a conversion by molar mass, not a printed value.
Key:
Carbonic anhydrase 4 = molecular target: T1, Carbonic anhydrase 4 (Bos taurus, UniProt Q95323)
T1 sequence (Q95323 whole entry): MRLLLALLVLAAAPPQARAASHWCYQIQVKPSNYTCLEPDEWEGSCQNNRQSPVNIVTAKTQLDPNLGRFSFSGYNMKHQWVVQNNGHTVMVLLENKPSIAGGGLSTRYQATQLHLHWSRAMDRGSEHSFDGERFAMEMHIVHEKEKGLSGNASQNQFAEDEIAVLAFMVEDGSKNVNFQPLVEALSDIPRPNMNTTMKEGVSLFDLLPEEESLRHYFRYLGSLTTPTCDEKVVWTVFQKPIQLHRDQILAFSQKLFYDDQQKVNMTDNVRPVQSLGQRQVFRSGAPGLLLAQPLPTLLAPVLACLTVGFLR
Description: Inhibition of bovine Carbonic anhydrase IV determined by esterase method

Carbonic anhydrase 2 = Carbonic anhydrase 2 (Homo sapiens, UniProt P00918)
Description: Inhibition of human cloned Carbonic anhydrase II

Carbonic anhydrase 1 = Carbonic anhydrase 1 (Homo sapiens, UniProt P00915)
Description: Inhibition of human cloned Carbonic anhydrase I

[1] = octanol/water
Description: Partition coefficient (logD) (chloroform/buffer)

physchem = details: buffer, pH 7.4
Description: Solubility (hydrochloride salt) in buffer at pH 7.4 and at 25 degree celsius.

Oryctolagus cuniculus [2] = organism: Oryctolagus cuniculus
Description: In vitro transcorneal accession rate (without epithelium) of compound was determined

Oryctolagus cuniculus [3] = organism: Oryctolagus cuniculus; remark: listed apart in the source
Description: In vitro transcorneal accession rate (intact cornea) of compound was determined

Oryctolagus cuniculus [4] = organism: Oryctolagus cuniculus; remark: listed apart in the source
Description: Reduction of intraocular pressure in normotensive rabbits after treatment with 50 uL of compound (as HCl salt) at pH 5.5 in eye after 60 min from administration, to that of controls

Oryctolagus cuniculus [5] = organism: Oryctolagus cuniculus; remark: listed apart in the source
Description: Reduction of intraocular pressure in normotensive rabbits after treatment with 50 uL of compound (as HCl salt) at pH 5.5 in eye after 90 min from administration, to that of controls

Oryctolagus cuniculus [6] = organism: Oryctolagus cuniculus; remark: listed apart in the source
Description: Reduction of intraocular pressure in normotensive rabbits after treatment with 50 uL of compound (as HCl salt) at pH 5.5 in eye after 30 min from administration, to that of controls

Oryctolagus cuniculus [7] = organism: Oryctolagus cuniculus; remark: listed apart in the source
Description: Reduction of intraocular pressure in normotensive rabbits after treatment with 50 uL of compound (as HCl salt) at pH 5.5 in eye after 240 min from administration, to that of controls

Oryctolagus cuniculus [8] = organism: Oryctolagus cuniculus; remark: listed apart in the source
Description: Reduction of intraocular pressure in normotensive rabbits after treatment with 50 uL of compound (as HCl salt) at pH 5.5 in eye after 0 min from administration, to that of controls

Chain of Carbonic anhydrase 1 (P00915 whole entry): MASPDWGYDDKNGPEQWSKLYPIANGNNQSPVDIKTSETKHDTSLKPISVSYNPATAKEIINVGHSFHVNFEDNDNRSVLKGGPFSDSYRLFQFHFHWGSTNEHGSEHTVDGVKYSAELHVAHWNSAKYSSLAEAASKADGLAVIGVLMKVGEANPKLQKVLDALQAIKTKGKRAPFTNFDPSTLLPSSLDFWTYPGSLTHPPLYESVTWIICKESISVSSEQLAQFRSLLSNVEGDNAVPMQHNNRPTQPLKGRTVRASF

SMILES	pKi (Carbonic anhydrase 4)	pKi (Carbonic anhydrase 2)	pKi (Carbonic anhydrase 1)	logD [1]	solubility (physchem) [mM]	Kin (Oryctolagus cuniculus [2]) [h⁻¹]	Kin (Oryctolagus cuniculus [3]) [h⁻¹]	Delta IOP (Oryctolagus cuniculus [4]) [mmHg]	Delta IOP (Oryctolagus cuniculus [5]) [mmHg]	Delta IOP (Oryctolagus cuniculus [6]) [mmHg]	Delta IOP (Oryctolagus cuniculus [7]) [mmHg]	Delta IOP (Oryctolagus cuniculus [8]) [mmHg]
NS(=O)(=O)c1ccc(CCNCc2cc(=O)oc3cc(Cl)ccc23)cc1	6.65	6.92	6.02	–	–	–	–	–	–	–	–	–
NS(=O)(=O)c1ccc(NNCc2cc(=O)oc3cc(Cl)ccc23)cc1	6.49	6.56	4.66	–	–	–	–	–	–	–	–	–
NS(=O)(=O)c1cc(S(N)(=O)=O)c(NCc2cc(=O)oc3cc(Cl)ccc23)cc1Cl	7.30	7.92	6.40	–	–	–	–	–	–	–	–	–
NS(=O)(=O)c1cccc(NS(=O)(=O)c2ccc(NCc3cc(=O)oc4cc(Cl)ccc34)cc2)c1	7.52	8.22	7.44	–	–	–	–	–	–	–	–	–
Cn1nc(S(N)(=O)=O)s/c1=N\S(=O)(=O)c1ccc(NCc2cc(=O)oc3cc(Cl)ccc23)cc1	9.22	9.30	9.00	–	–	–	–	–	–	–	–	–
NS(=O)(=O)c1nnc(NN2C(=O)c3cccnc3C2=O)s1	7.74	8.10	7.41	0.315	72 (≈ 23.5 mg/mL)	7600	2500	–	–	–	–	–
NS(=O)(=O)c1ccc(NCc2cc(=O)oc3cc(Cl)ccc23)cc1	6.77	6.90	4.82	–	–	–	–	–	–	–	–	–
NS(=O)(=O)c1cc(S(N)(=O)=O)c(NCc2cc(=O)oc3cc(Cl)ccc23)c(Cl)c1Cl	7.31	7.74	6.30	–	–	–	–	–	–	–	–	–
NS(=O)(=O)c1ccc(NCc2cc(=O)oc3cc(Cl)ccc23)c(Cl)c1	7.02	7.35	6.28	–	–	–	–	–	–	–	–	–
NS(=O)(=O)c1nnc(NS(=O)(=O)c2ccc(NCc3cc(=O)oc4cc(Cl)ccc34)cc2)s1	8.40	8.70	8.30	–	–	–	–	–	–	–	–	–
NS(=O)(=O)c1nnc(NC(=O)CCNCc2cc(=O)oc3cc(Cl)ccc23)s1	7.80	8.70	7.92	0.683	62 (≈ 27.5 mg/mL)	8400	3300	8.3	7.2	5.1	3.4	0
NS(=O)(=O)c1ccc(NS(=O)(=O)c2ccc(NCc3cc(=O)oc4cc(Cl)ccc34)cc2)cc1	7.85	8.52	7.48	–	–	–	–	–	–	–	–	–
NS(=O)(=O)c1cccc(NCc2cc(=O)oc3cc(Cl)ccc23)c1	6.55	6.60	4.70	–	–	–	–	–	–	–	–	–
NS(=O)(=O)c1nnc(NCc2cc(=O)oc3cc(Cl)ccc23)s1	7.82	8.15	7.44	0.558	54 (≈ 20.1 mg/mL)	6500	2800	5.8	4.9	3.9	1.5	0
CCN(Cc1cc(=O)oc2cc(Cl)ccc12)C1CC(C)S(=O)(=O)c2sc(S(N)(=O)=O)cc21 (stereo not given)	7.60	8.10	4.74	1.762	41 (≈ 21.2 mg/mL)	5900	2100	3.7	1.6	1.9	0	0
NS(=O)(=O)c1ccccc1NCc1cc(=O)oc2cc(Cl)ccc12	6.52	6.57	4.67	–	–	–	–	–	–	–	–	–
NS(=O)(=O)c1ccc(NCc2cc(=O)oc3cc(Cl)ccc23)c(Br)c1	7.11	7.48	6.22	–	–	–	–	–	–	–	–	–
Cn1nc(S(N)(=O)=O)s/c1=N\Cc1cc(=O)oc2cc(Cl)ccc12	7.80	8.22	7.54	–	–	–	–	6	–	–	–	–
NS(=O)(=O)c1ccc(NCc2cc(=O)oc3cc(Cl)ccc23)c(F)c1	6.96	7.52	6.27	–	–	–	–	–	–	–	–	–
NS(=O)(=O)c1ccc(NCc2cc(=O)oc3cc(Cl)ccc23)c(I)c1	7.15	7.44	6.21	–	–	–	–	–	–	–	–	–
NS(=O)(=O)c1ccc(CNCc2cc(=O)oc3cc(Cl)ccc23)cc1	6.62	6.84	5.97	–	–	–	–	–	–	–	–	–

— ChEMBL document CHEMBL1133155, “Carbonic anhydrase inhibitors: topical sulfonamide antiglaucoma agents incorporating secondary amine moieties” (Bioorg Med Chem Lett, 2000)
